Laboratory results: patent US4552701A, “Glycopeptide antibiotics and process of preparation” (Eli Lilly and Company, priority 1984, dated 1985)
≈ marks a conversion by molar mass, not a printed value.

Legend:
Escherichia coli TEM = assay type: cell-based; details: agar dilution
[1] = test system: Streptococcus pyogenes C203; assay type: cell-based; details: agar dilution
Klebsiella pneumonia X68 = assay type: cell-based; details: agar dilution
[2] = test system: Staphylococcus epidermidis EP11; assay type: cell-based; details: agar dilution
[3] = test system: Streptococcus pneumoniae Park 1; assay type: cell-based; details: agar dilution
Klebsiella pneumonia X26 = assay type: cell-based; details: agar dilution
[4] = test system: Staphylococcus aureus NRRL B313; details: agar dilution
Escherichia coli N10 = assay type: cell-based; details: agar dilution
Escherichia coli EC14 = assay type: cell-based; details: agar dilution
[5] = test system: Haemophilus influenzae C.L.; assay type: cell-based; details: agar dilution
[6] = test system: Staphylococcus epidermidis 222; assay type: cell-based; details: agar dilution
[7] = test system: Haemophilus influenzae 76; assay type: cell-based; details: agar dilution
[8] = test system: Staphylococcus aureus X400; details: agar dilution
[9] = test system: Streptococcus sp. group D 2041; assay type: cell-based; details: agar dilution
[10] = test system: Staphylococcus aureus V41; details: agar dilution
Klebsiella pneumonia KAE = assay type: cell-based; details: agar dilution
[11] = test system: Streptococcus faecium ATCC 9790; assay type: cell-based; details: agar dilution
Streptococcus pneumoniae = test: experimental bacterial infection in mice, ED50; assay type: in vivo; details: subcutaneous, two doses
Procedure: (§1) The formula 1 compounds have also shown in vivo antimicrobial activity against experimental bacterial infections. When two doses of test compound were administered to mice in experimental infections, the activity observed was measured as an ED50 value [effective dose in mg/kg to protect 50% of the test animals: see Warren Wick, et al., J. Bacteriol. 81, 233-235 (1961)].

Staphylococcus aureus = test: experimental bacterial infection in mice, ED50; assay type: in vivo; details: subcutaneous, two doses
Procedure: as §1

Streptococcus pyogenes = test: experimental bacterial infection in mice, ED50; assay type: in vivo; details: subcutaneous, two doses
Procedure: as §1

[12] = test system: Peptococcus asaccharolyticus 1302; assay type: cell-based; details: agar dilution, read after 24 hrs
[13] = test system: Peptostreptococcus intermedius 1264; assay type: cell-based; details: agar dilution, read after 24 hrs
[14] = test system: Bacteroides thetaiotaomicron 1438; assay type: cell-based; details: agar dilution, read after 24 hrs
[15] = test system: gram-positive microorganisms; test: in vitro antibacterial activity (general statement); assay type: cell-based; details: statement in words
[16] = test system: Fusobacterium symbiosum 1470; assay type: cell-based; details: agar dilution, read after 24 hrs
[17] = test system: Fusobacterium necrophorum 6054A; assay type: cell-based; details: agar dilution, read after 24 hrs
[18] = test system: Bacteroides fragilis 1877; assay type: cell-based; details: agar dilution, read after 24 hrs
[19] = test system: Bacteroides melaninogenicus 2736; assay type: cell-based; details: agar dilution, read after 24 hrs
[20] = test system: Clostridium septicum 1128; assay type: cell-based; details: agar dilution, read after 24 hrs
Procedure: (§2) | read after 24hrs. incubation.

[21] = test system: Clostridium difficile 2994; assay type: cell-based; details: agar dilution, read after 24 hrs
Procedure: as §2

[22] = test system: Bacteroides vulgatis 1211; assay type: cell-based; details: agar dilution, read after 24 hrs
Peptococcus prevoti 1281 = details: agar dilution, read after 24 hrs
[23] = test system: Eubacterium aerofaciens 1235; assay type: cell-based; details: agar dilution, read after 24 hrs
[24] = test system: Peptostreptococcus anaerobius 1428; assay type: cell-based; details: agar dilution, read after 24 hrs
[25] = test system: Bacteroides corrodens 1874; assay type: cell-based; details: agar dilution, read after 24 hrs
[26] = test system: Propionibacterium acnes 79; assay type: cell-based; details: agar dilution, read after 24 hrs
[27] = test system: Bacteroides melaninogenicus 1856/28; assay type: cell-based; details: agar dilution, read after 24 hrs
Bacteroides fragilis 111 = assay type: cell-based; details: agar dilution, read after 24 hrs
[28] = test system: Clostridium perfringens 81; assay type: cell-based; details: agar dilution, read after 24 hrs
[29] = test system: Bacteroides fragilis 1936B; assay type: cell-based; details: agar dilution, read after 24 hrs

SMILES	MIC (Escherichia coli TEM) [µg/mL]	MIC [1] [µg/mL]	MIC (Klebsiella pneumonia X68) [µg/mL]	MIC [2] [µg/mL]	MIC [3] [µg/mL]	MIC (Klebsiella pneumonia X26) [µg/mL]	MIC [4] [µg/mL]	MIC (Escherichia coli N10) [µg/mL]	MIC (Escherichia coli EC14) [µg/mL]	MIC [5] [µg/mL]	MIC [6] [µg/mL]	MIC [7] [µg/mL]	MIC [8] [µg/mL]	MIC [9] [µg/mL]	MIC [10] [µg/mL]	MIC (Klebsiella pneumonia KAE) [µg/mL]	MIC [11] [µg/mL]	ED50 (Streptococcus pneumoniae) [mg/kg/2]	ED50 (Staphylococcus aureus) [mg/kg/2]	ED50 (Streptococcus pyogenes) [mg/kg/2]	also measured
CN[C@H](CC(C)C)C(=O)N[C@H]1C(=O)N[C@@H](CC(N)=O)C(=O)N[C@H]2C(=O)N[C@H]3C(=O)N[C@H](C(=O)N[C@H](C(=O)O)c4cc(O)cc(O)c4-c4cc3ccc4O)[C@H](O)c3ccc(c(Cl)c3)Oc3cc2cc(c3O[C@@H]2O[C@H](CO)[C@@H](O)[C@H](O)[C@H]2O)Oc2ccc(cc2Cl)[C@H]1O [Compound 13, Desvancosamine-Vancomycin]	> 128	4 (≈ 3.06 µM)	> 128	16 (≈ 12.3 µM)	4 (≈ 3.06 µM)	> 128	8 (≈ 6.13 µM)	> 128	> 128	> 128	8 (≈ 6.13 µM)	128 (≈ 98 µM)	8 (≈ 6.13 µM)	32 (≈ 24.5 µM)	8 (≈ 6.13 µM)	> 128	8 (≈ 6.13 µM)	–	–	–	–
CC(C)C[C@H](C(=O)N[C@H]1C(=O)N[C@@H](CC(N)=O)C(=O)N[C@H]2C(=O)N[C@H]3C(=O)N[C@H](C(=O)N[C@H](C(=O)[O-])c4cc(O)cc(O)c4-c4cc3ccc4O)[C@H](O)c3ccc(c(Cl)c3)Oc3cc2cc(c3O)Oc2ccc(cc2Cl)[C@H]1O)[N+](C)(C)C [Compound 11, Agluco-M43A]	> 128	2 (≈ 1.71 µM)	> 128	2 (≈ 1.71 µM)	1 (≈ 0.853 µM)	> 128	2 (≈ 1.71 µM)	> 128	> 128	128 (≈ 109 µM)	2 (≈ 1.71 µM)	32 (≈ 27.3 µM)	2 (≈ 1.71 µM)	4 (≈ 3.41 µM)	2 (≈ 1.71 µM)	> 128	2 (≈ 1.71 µM)	3.06	3.06	3.63	–
CN[C@H](CC(C)C)C(=O)N[C@H]1C(=O)N[C@@H](CC(N)=O)C(=O)N[C@H]2C(=O)N[C@H]3C(=O)N[C@H](C(=O)N[C@H](C(=O)O)c4cc(O)cc(O)c4-c4cc3ccc4O)[C@H](O)c3ccc(c(Cl)c3)Oc3cc2cc(c3O)Oc2ccc(cc2Cl)[C@H]1O [Compound 10, aglucovancomycin]	64 (≈ 55.9 µM)	0.5 (≈ 0.437 µM)	> 128	2 (≈ 1.75 µM)	0.5 (≈ 0.437 µM)	> 128	0.5 (≈ 0.437 µM)	> 128	> 128	64 (≈ 55.9 µM)	1 (≈ 0.874 µM)	64 (≈ 55.9 µM)	1 (≈ 0.874 µM)	64 (≈ 55.9 µM)	1 (≈ 0.874 µM)	> 128	1 (≈ 0.874 µM)	16.54	8.75	22.3	MIC [12]: 64 µg/mL (≈ 55.9 µM); MIC [13]: > 128 µg/mL; MIC [14]: > 128 µg/mL; antibacterial activity [15]: good in vitro antibacterial activity; MIC [16]: 8 µg/mL (≈ 6.99 µM); MIC [17]: 2 µg/mL (≈ 1.75 µM); MIC [18]: 128 µg/mL (≈ 112 µM); MIC [19]: 128 µg/mL (≈ 112 µM); MIC [20]: 8 µg/mL (≈ 6.99 µM); MIC [21]: 8 µg/mL (≈ 6.99 µM); MIC [22]: 128 µg/mL (≈ 112 µM); MIC (Peptococcus prevoti 1281): 8 µg/mL (≈ 6.99 µM); MIC [23]: 128 µg/mL (≈ 112 µM); MIC [24]: 32 µg/mL (≈ 28 µM); MIC [25]: > 128 µg/mL; MIC [26]: 8 µg/mL (≈ 6.99 µM); MIC [27]: > 128 µg/mL; MIC (Bacteroides fragilis 111): > 128 µg/mL; MIC [28]: 8 µg/mL (≈ 6.99 µM); MIC [29]: > 128 µg/mL
